From ChEMBL document CHEMBL4627246, “Pyroglutamide-Based P2X7 Receptor Antagonists Targeting Inflammatory Bowel Disease” (J Med Chem, 2020)

How the values were obtained:
Type in all cases: cell-based
A549 = experiment: Cytotoxicity against human A549/ATCC cells assessed as effect on cell growth at 10 uM incubated for 48 hrs by sulforhodamine B assay; settings: a549, 48 h
SR = experiment: Cytotoxicity against human SR cells assessed as effect on cell growth at 10 uM incubated for 48 hrs by sulforhodamine B assay
EKVX = experiment: Cytotoxicity against human EKVX cells assessed as effect on cell growth at 10 uM incubated for 48 hrs by sulforhodamine B assay
K562 = experiment: Cytotoxicity against human K562 cells assessed as effect on cell growth at 10 uM incubated for 48 hrs by sulforhodamine B assay; settings: k562, 48 h
HOP-62 = experiment: Cytotoxicity against human HOP62 cells assessed as effect on cell growth at 10 uM incubated for 48 hrs by sulforhodamine B assay; settings: hop-62, 48 h
NCI-H226 = experiment: Cytotoxicity against human NCI-H226 cells assessed as effect on cell growth at 10 uM incubated for 48 hrs by sulforhodamine B assay; settings: nci-h226, 48 h
NCI-H460 = experiment: Cytotoxicity against human NCI-H460 cells assessed as effect on cell growth at 10 uM incubated for 48 hrs by sulforhodamine B assay; settings: nci-h460, 48 h
NCI-H522 = experiment: Cytotoxicity against human NCI-H522 cells assessed as effect on cell growth at 10 uM incubated for 48 hrs by sulforhodamine B assay; settings: nci-h522, 48 h
COLO 205 = experiment: Cytotoxicity against human COLO205 cells assessed as effect on cell growth at 10 uM incubated for 48 hrs by sulforhodamine B assay; settings: colo 205, 48 h
KM12 = experiment: Cytotoxicity against human KM12 cells assessed as effect on cell growth at 10 uM incubated for 48 hrs by sulforhodamine B assay; settings: km12, 48 h
SF-295 = experiment: Cytotoxicity against human SF295 cells assessed as effect on cell growth at 10 uM incubated for 48 hrs by sulforhodamine B assay; settings: sf-295, 48 h
LOX IMVI = experiment: Cytotoxicity against human LOXIMVI cells assessed as effect on cell growth at 10 uM incubated for 48 hrs by sulforhodamine B assay
SK-MEL-28 = experiment: Cytotoxicity against human SK-MEL-28 cells assessed as effect on cell growth at 10 uM incubated for 48 hrs by sulforhodamine B assay; settings: sk-mel-28, 48 h
SK-MEL-5 = experiment: Cytotoxicity against human SK-MEL-5 cells assessed as effect on cell growth at 10 uM incubated for 48 hrs by sulforhodamine B assay; settings: sk-mel-5, 48 h
UACC-257 = experiment: Cytotoxicity against human UACC257 cells assessed as effect on cell growth at 10 uM incubated for 48 hrs by sulforhodamine B assay; settings: uacc-257, 48 h
NCI/ADR-RES = experiment: Cytotoxicity against human NCI/ADR-RES cells assessed as effect on cell growth at 10 uM incubated for 48 hrs by sulforhodamine B assay
SK-OV-3 = experiment: Cytotoxicity against human SKOV3 cells assessed as effect on cell growth at 10 uM incubated for 48 hrs by sulforhodamine B assay; settings: sk-ov-3, 48 h
SN12C = experiment: Cytotoxicity against human SN12C cells assessed as effect on cell growth at 10 uM incubated for 48 hrs by sulforhodamine B assay
Hs-578T = experiment: Cytotoxicity against human Hs 578T cells assessed as effect on cell growth at 10 uM incubated for 48 hrs by sulforhodamine B assay
BT-549 = experiment: Cytotoxicity against human BT549 cells assessed as effect on cell growth at 10 uM incubated for 48 hrs by sulforhodamine B assay; settings: bt-549, 48 h

Measured: Activity

COc1ccc(CN2C(=O)CC[C@H]2C(=O)NCCc2ccccc2)cc1
Non-Toxic: all assays above

COC(=O)[C@@H]1C/C(=C\NCc2ccc(Cl)cc2Cl)C(=O)N1C(=O)OC
Non-Toxic: all assays above

O=C(NCc1ccc(Cl)cc1Cl)[C@@H]1CCC(=O)N1c1cscn1
Non-Toxic: all assays above

CCCCCCN1C(=O)[C@@H]2C/C(=C\N(C)C)C(=O)N2C1N(C)C (stereo not given in full)
Non-Toxic: all assays above

COc1cc(CNC(=O)[C@@H]2CCC(=O)N2)cc(OC)c1OC
Non-Toxic: all assays above

O=C(NCC1CCCCC1)[C@@H]1CCC(=O)N1c1ccccc1
Non-Toxic: all assays above

O=C(NCCc1ccccc1)[C@@H]1CCC(=O)N1Cc1ccc(Br)cc1
Non-Toxic: all assays above

O=C(NCCc1ccccc1)[C@@H]1CCC(=O)N1Cc1ccc(Cl)cc1Cl
Non-Toxic: all assays above

O=C(NCc1ccc(Cl)cc1Cl)[C@@H]1CCC(=O)N1c1ccc(Cl)cc1
Non-Toxic: all assays above
